According to US8283481B2, “Inhibitors of a 9-cis epoxycarotenoid dioxygenase” (National Research Council of Canada, priority 2008, dated 2012):

Legend:
[1] = test system: ABA and catabolites in Arabidopsis thaliana Col-0 plants; experiment: Total ABA metabolite levels in mannitol stressed plants treated with SLCCD inhibitors; assay type: in vivo; settings: for effect on ABA and catabolite pools under osmotic stress, compared with 13 (in words): whole time course
Procedure: For each condition to be tested, three hundred wild-type Arabidopsis thaliana Col-0 seeds (LEHLE) were sterilized, vernalized and sewn onto 200 mL of Sunshine Mix #3 (Sun Gro) potting material in an 8×8×4 cm pot. Plants were watered continuously with 25 g/100 mL of 20-20-20 (PlantProd™) fertilizer and grown at 22° C. with a 16 hour photoperiod for 22 days. Plants were pre-treated with 50 mL/pot of Buffer A (10 mM HEPES pH 6.5) (Sigma)+/−10 or 33 μM test compound for 2 hours. Plants were then soaked with 50 mL/pot of Buffer A containing 0.4 M mannitol (Sigma)+/−10 or 33 μM test compound. Non-treated/non-stressed control plants were simply soaked in Buffer A at the designated time points. […] Half of the tissue samples were lyophilized for metabolite profiling and the other half taken for quantitative reverse-transcription polymerase chain reaction (qRT-PCR) analysis.
Freeze-dried tissue was homogenized using a multi-tube ball mill (Mini-BeadBeater-96™, Biospec Products Inc., Bartlesville, Okla., USA) and 50 mg of each sample was weighed out into individual Falcon tubes. To each sample, 100 μL of a cocktail of internal standards comprised of (−)-5,8′,8′,8′-d4-ABA, (−)-7′,7′,7′-d3-PA, (−)-5,8′,8′,8′-d4-7′OH ABA, (−)-7′,7′,7′-d3-DPA and (+)-4,5,8′,8′,8′-d5-ABAGE, each at a concentration of 0.2 ng/μL and dissolved in a mixture of water:acetonitrile (1:1, v/v) with 0.5% glacial acetic acid, was added. Further, 3 mL of isopropanol:water:glacial acetic acid (80:19:1, v/v/v) extraction solvent was added, and samples were placed in the fridge (4° C., in the dark) on an orbital shaker at about 350 rpm. After 18-24 hours, the samples were centrifuged at 4.4 krpm for 10 min, the supernatant was transferred to a disposable culture tube, and a second portion of 500 μL extraction solvent mixture was added to wash the pellet. After vortexing and centrifuging again at 4.4 krpm for 10 min, each wash was combined with its appropriate supernatant. The organic extract was dried under reduced pressure, then re-dissolved in 100 μL methanol:glacial acetic acid (99:1, v/v) followed by 900 μL of aqueous 1% glacial acetic acid. This mixture was extracted with 2 mL hexane, and then the aqueous layer was dried down under reduced pressure. The sample was further reconstituted in 2 mL aqueous 1% glacial acetic acid and loaded onto an Oasis MCX SPE cartridge (3 cc, Waters Corporation, Mississauga, Ontario, Canada). After a wash with 3 mL aqueous 1% glacial acetic acid, samples were eluted with 1 mL methanol:glacial acetic acid (99:1, v/v) and then dried down under reduced pressure. The extract was re-dissolved in 100 μL methanol:glacial acetic acid (99:1, v/v) followed by 900 μL of aqueous 1% glacial acetic acid. This mixture was further cleaned on an Oasis HLB SPE cartridge (1 cc, Waters Corporation, Mississauga, Ontario, Canada). After a wash with 1 mL aqueous 1% glacial acetic acid, the fraction containing ABA and ABA metabolites was eluted with 1 mL acetonitrile:water:glacial acetic acid (30:69:1, v/v/v) and then was evaporated to dryness. The final residue was dissolved in 200 μL of acetonitrile:water (15:85, v/v) containing 0.1% glacial acetic acid and 100 pg/μL (±)-3′,5′,5′,7′,7′,7′-d6-ABA as a recovery standard. Finally, the sample was subjected to LC-ES-MS/MS analysis and quantification, as described in Owen and Abrams, 2008.^39

[2] = test system: Arabidopsis thaliana Col-0 seeds; experiment: Seed germination assay; assay type: in vivo
Procedure: Arabidopsis thaliana Col-0 seeds were sterilized by washing them with 10% sodium hypochlorite and 20% sodium dodecyl sulfate (Sigma) for five minutes and then rinsing four times with sterile water. Seeds were moist chilled for 4 days and then plated on germination medium (0.41% MS salts, 1% sucrose, 0.05% MES and 0.1% Gamborg's vitamins, pH 5.7, 0.7% agar) (Sigma) containing either 0.1, 0.33, 1.0 or 3.33 μM of inhibitor or (+)-ABA 1. As a control, seeds were sewn and germinated on media only without inhibitors or (+)-ABA 1. Germination was recorded over seven days and indexes calculated as described previously.^40

[3] = highest concentration tested (3.33 μM)
[4] = 33 μM inhibitor, mannitol stress

CCSCC=C(C)C#CC1(O)C(C)CC(=O)CC1(C)C (racemic) [Compound 13, (4S,5R/4R,5S)-(3′Z)-4-(5′-(Ethylthio)-3′-methylpent-3′-en-1′-ynyl)-4-hydroxy-3,3,5-trimethylcyclohexanone]
total levels of ABA and catabolites ([1]; 33 μM inhibitor 2 h before and during 0.4 M mannitol stress, 24 hours, mannitol only 15147 pmol/g): 8211 pmol/g | levels of ABA and catabolites at first time point (in words) ([1]; 33 μM inhibitor, mannitol stress, first 6 hours): comparable to those of the non-treated/non-stressed control plants | reduction of seed germination ([2]; 1 μM in germination medium): 26% | less effect on germination than (+)-ABA 1 ([2]; compared with (+)-ABA 1): 60-70% | reduction of seed germination [2, 3]: 38% | effect on seed germination at low concentrations (in words) [2]: slight promotion effects

C/C(C#C[C@@]12O[C@]1(C)C[C@@H](O)CC2(C)C)=C/CSc1ccccc1 [Compound 17, (1R,3S,6R)-(3′Z)-1,5,5-Trimethyl-6-(3′-methyl-5′-(phenylthio)-pent-3′-en-1′-ynyl)-7-oxa-bicyclo[4.1.0]heptan-3-ol]
effect on ABA and catabolite pools under osmotic stress, compared with 13 (in words) [1, 4]: less effective than 13 | reduction of seed germination ([2]; 1 μM in germination medium): 26% | reduction of seed germination [2, 3]: 51% | effect on seed germination at low concentrations (in words) [2]: slight promotion effects

C/C(C#C[C@@]12O[C@]1(C)C[C@@H](O)CC2(C)C)=C/CNc1ccccc1 [Compound 18, (1R,3S,6R)-(3′Z)-1,5,5-Trimethyl-6-(3′-methyl-5′-(phenylamino)-pent-3′-en-1-ynyl)-7-oxabicyclo[4.1.0]heptan-3-ol]
effect on ABA and catabolite pools under osmotic stress, compared with 13 (in words) [1, 4]: less effective than 13 | reduction of seed germination ([2]; 1 μM in germination medium): 50% | reduction of seed germination [2, 3]: 71%
